Here are results for 43 compounds from patent publication US11084826B2, “RSV antiviral pyrazolo- and triazolo-pyrimidine compounds” (Janssen Sciences Ireland Unlimited Company, priority 2015, dated 2021).

SMILES strings stand for the structures.

One data set relates to rgRSV224 virus. Description: Antiviral activity: inhibition of rgRSV224 (GFP-expressing RSV) replication in HeLa cells, GFP expression read-out. It counts as cell-based, respiratory syncytial virus (RSV). The note with it: human respiratory syncytial virus, HeLa, read-out: RSV HELA pEC50, rgRSV224 virus (MOI=1) in HeLa cells, GFP read-out (converted). The method, then: (§1) Black 384-well clear-bottom microtiter plates (Corning, Amsterdam, The Netherlands) were filled via acoustic drop ejection using the echo liquid handler (Labcyte, Sunnyvale, Calif.). 200 nL of compound stock solutions (100% DMSO) were transferred to the assay plates. 9 serial 4-fold dilutions of compound were made, creating per quadrant the same compound concentration. The assay was initiated by adding 10 μL of culture medium to each well (RPMI medium without phenol red, 10% FBS-heat inactivated, 0.04% gentamycin (50 mg/mL). All addition steps are done by using a multidrop dispenser (Thermo Scientific, Erembodegem, Belgium). Next, rgRSV224 virus (MOI=1) diluted in culture medium was added to the plates. rgRSV224 virus is an engineered virus that includes an additional GFP gene (Hallak LK, Spillmann D, Collins PL, Peeples Me. Glycosaminoglycan sulfation requirements for respiratory syncytial virus infection; Journal of virology (2000), 74(22), 10508-13) and was in-licensed from the NIH (Bethesda, Md., USA). Finally, 20 μL of a HeLa cell suspension (3,000 cells/well) were plated. Medium, virus- and mock-infected controls were included in each test. The wells contain 0.05% DMSO per volume. Cells were incubated at 37° C. in a 5% CO2 atmosphere. Three days post-virus exposure, viral replication was quantified by measuring GFP expression in the cells by an in house developed MSM laser microscope (Tibotec, Beerse, Belgium). The EC50 was defined as the 50% inhibitory concentration for GFP expression. In parallel, compounds were incubated for three days in a set of white 384-well microtiter plates (Corning) and the cytotoxicity of compounds in HeLa cells was determined by measuring the ATP content of the cells using the ATPlite kit (Perkin Elmer, Zaventem, Belgium) according to the manufacturer's instructions. The CC50 was defined as the 50% concentration for cytotoxicity.

The nature of data set [1]: Cytotoxicity in HeLa cells, ATP content measured with the ATPlite kit. In kind it is cell-based. The note with it: human, TOX HELA pCC50. On the procedure:
as §1
(In general: ATP-based viability assays read luminescence as a measure of living cells.)

For orientation: CC50 means the concentration that lowers cell viability or growth by half. Higher therefore signals lower toxicity to the cells. With `CCc1cc(C(=O)N2CCCCC[C@H]2C)nc2cc(-c3ccc(N4CC(C(=O)O)C4)cc3F)nn12` [Compound W1], the EC50 in the data set on rgRSV224 virus is 64.6 nM. This compound also showed a CC50 at 3 days in data set [1] of over 25100 nM.
The matching figures for `CCc1cc(C(=O)N2CCCCCC2C)nc2cc(C3CCCCC3)nn12` (centres unmarked) [Compound A5]: 4790 nM and 33100 nM.
On to `C[C@@H]1CCCCCN1C(=O)c1cc(C2CC2)n2nc(-c3cccc([C@H]4C[C@@H]4C(=O)O)c3F)cc2n1` [Compound O6], for which the EC50 in the data set with rgRSV224 virus was 148 nM. This compound also gave a CC50 at 3 days in data set [1] of 97700 nM.
The matching figures for `CCc1cc(C(=O)N2CCCCCC2C)nc2cc(-c3ccc(C4CC4C(=O)O)cc3F)nn12` (centres unmarked) [Compound O1]: 123 nM and over 25100 nM.
In the same order, the values of `CCCC(C)N(CC)C(=O)c1cc(CC)n2nc(-c3ccc(C4C[C@H]4C(=O)O)cc3F)cc2n1` (mixture of isomers) [Compound O13] are 141 nM and 45700 nM.
The matching figures for `C[C@@H]1CCCCCN1C(=O)c1cc(C2CC2)n2nc(-c3cccc(/C=C/C(=O)O)c3F)cc2n1` [Compound M28]: 93.3 nM and 17800 nM.
Turning to `CCc1cc(C(=O)N2CCCn3cccc3C2C)nc2cc(-c3ccc(-c4ccc(C(=O)O)cn4)cc3F)nn12` (racemic) [Compound F59], the EC50 with rgRSV224 virus was 191 nM. In data set [1], the CC50 at 3 days is over 25100 nM.
Regarding `CCc1cc(C(=O)N2CCCCC[C@H]2C)nc2cc(-c3ccc(/C=C/C(=O)O)c(OC)c3F)nn12` [Compound M32], the EC50 in the data set on rgRSV224 virus was 178 nM. In data set [1], this compound had a CC50 at 3 days of 66100 nM.
The matching figures for `CCc1cc(C(=O)N2CCCCCC2C)nc2cc(-c3cc(NC(=O)C4CC4)ccc3F)nn12` (centres unmarked) [Compound E12]: 447 nM and 60300 nM.
As to `CCc1cc(C(=O)N2CCCCCC2C)nc2cc(-c3ccc(-c4cnn(C5CC5)c4)cc3F)nn12` (centres unmarked) [Compound F12], in the data set with rgRSV224 virus, the EC50 is 1380 nM. The CC50 at 3 days in data set [1] is over 25100 nM.
As for `CCc1cc(C(=O)N2CCCCC[C@H]2C)nc2cc(-c3cc4ccc(C(=O)O)nc4cc3F)nn12` [Compound F33], the EC50 with rgRSV224 virus is 91.2 nM. The CC50 at 3 days in data set [1] was 66100 nM.
The matching figures for `CCc1cc(C(=O)N2CCCCC[C@H]2C)nc2cc(-c3ccc(-c4cc(=O)[nH]o4)cc3F)nn12` [Compound X1]: 93.3 nM and over 25100 nM.
Take `CCc1cc(C(=O)N2CCCCC[C@H]2C)nc2cc(-c3ccc(-c4ccc(C(=O)O)nc4)cc3F)nn12` [Compound F24]: the EC50 in the data set with rgRSV224 virus was 69.2 nM. The compound further showed a CC50 at 3 days in data set [1] of 12600 nM.
In the same order, the values of `CCc1cc(C(=O)N2CCCc3ccccc3C2C)nc2cc(-c3ccc(/C=C/C(=O)O)cc3F)nn12` (centres unmarked) [Compound M18] are 77.6 nM and over 25100 nM.
For `CCc1cc(C(=O)N2CCn3cccc3C2C)nc2cc(-c3ccc4c(c3F)OCC(C(=O)O)=C4)nn12` (racemic) [Compound F61], the EC50 in the data set on rgRSV224 virus was 45.7 nM. This compound also showed a CC50 at 3 days in data set [1] of over 100000 nM.
In the same order, the values of `C[C@@H]1c2ccccc2CCN1C(=O)c1cc(N2CCCC2)n2nc(-c3ccc(/C=C/C(=O)O)cc3F)cc2n1` [Compound M16] are 13.2 nM and 16600 nM.
In the same order, the values of `CCc1cc(C(=O)N2CCc3sc(C)cc3C2C)nc2cc(-c3ccc(-c4ccc(C(=O)O)cn4)cc3F)nn12` (racemic) [Compound F58] are 170 nM and 26300 nM.
In the same order, the values of `CCCC(C)N(CC)C(=O)c1cc(CC)n2nc(-c3ccc([C@H]4C[C@@H]4C(=O)O)cc3F)cc2n1` (relative stereo) [Compound O14] are 219 nM and 66100 nM.
For the compound `CCc1cc(C(=O)N2CCc3ccccc3C2C)nc2cc(-c3ccc(-c4ccc(C(=O)O)nc4)cc3F)nn12` (centres unmarked) [Compound F22], the EC50 in the data set with rgRSV224 virus was 35.5 nM. It took 6920 nM to reach half-maximal cytotoxicity in data set [1] (CC50 at 3 days).
In the same order, the values of `CCc1cc(C(=O)N2CCCCCC2C)nc2cc(-c3ccc(-c4cccnc4)cc3)nn12` (centres unmarked) [Compound F2] are 2950 nM and 38900 nM.
With `CC1CCCCCN1C(=O)c1cc(CC2CCCCC2)n2nc(-c3ccccc3F)cc2n1` (centres unmarked) [Compound A20], the EC50 in the data set on rgRSV224 virus was 6310 nM. In data set [1], this compound yielded a CC50 at 3 days of over 25100 nM.
Regarding `CCc1cc(C(=O)N2CCCCCC2C)nc2cc(-c3ccc(NS(=O)(=O)C4CC4)cc3F)nn12` (centres unmarked) [Compound D2], the EC50 in the data set on rgRSV224 virus is 603 nM. The compound also displayed a CC50 at 3 days in data set [1] of over 50100 nM.
The matching figures for `CCc1cc(C(=O)N2CCCCCC2C)nc2cc(-c3ccc(-c4cncn4C)cc3F)nn12` (centres unmarked) [Compound F13]: 562 nM and over 25100 nM.
The matching figures for `CCc1cc(C(=O)N2CCCCCC2C)nc2cc(-c3ccc(-c4c[nH]cn4)cc3F)nn12` (centres unmarked) [Compound F16]: 145 nM and over 25100 nM.
For `CCc1cc(C(=O)N2CCCCC[C@H]2C)nc2cc(-c3ccc(N(C)c4cc(C(=O)O)nn4C)cc3F)nn12` [Compound W21], in the data set on rgRSV224 virus, the EC50 was 1020 nM. Moreover, the CC50 at 3 days in data set [1] is 21900 nM.
The matching figures for `CCCCC(C)N(C)C(=O)c1cc(CC)n2nc(-c3ccccc3F)cc2n1` (centres unmarked) [Compound A17]: 1510 nM and 40700 nM.
The matching figures for `CCc1cc(C(=O)N2CCCCC[C@H]2C)nc2cc(-c3ccc(NC4(C(=O)O)CC4)cc3F)nn12` [Compound W16]: 269 nM and over 100000 nM.
In the same order, the values of `CCc1cc(C(=O)N2CCCCC[C@H]2C)nc2cc(-c3ccc(N4CCC[C@@H](C(=O)O)C4)cc3F)nn12` [Compound W4] are 105 nM and 89100 nM.
For `CCc1cc(C(=O)N2CCCC3(CC=CC3)C2C)nc2cc(-c3ccc(-c4ccc(C(=O)O)cn4)cc3F)nn12` (racemic) [Compound F50], the EC50 in the data set with rgRSV224 virus is 324 nM. Moreover, the CC50 at 3 days in data set [1] was 60300 nM.
The matching figures for `C[C@@H]1c2ccsc2CCN1C(=O)c1cc(C2(C)CC2)n2nc(-c3ccc(N4CC[C@H](C(=O)O)C4)cc3F)cc2n1` [Compound W44]: 8.71 nM and 49000 nM.
Consider `CCc1cc(C(=O)N2CCCCCC2C)nc2cc(-c3ccc(-c4cnc(C)n4C)cc3F)nn12` (centres unmarked) [Compound F11], for which the EC50 in the data set with rgRSV224 virus was 1350 nM. Besides, the CC50 at 3 days in data set [1] was over 25100 nM.
Regarding `CCc1cc(C(=O)N2CCn3cccc3[C@H]2C)nc2cc(-c3ccc([C@H]4C[C@@H]4C(=O)O)cc3F)nn12` (relative stereo) [Compound O19], the EC50 in the data set with rgRSV224 virus is 30.9 nM. Further, in data set [1], the midpoint of cytotoxicity, the CC50 at 3 days, lay at 91200 nM.
`C[C@@H]1CCCCCN1C(=O)c1cc(C2(C)CC2)n2nc(-c3cccc([C@H]4C[C@@H]4C(=O)O)c3F)cc2n1` (racemic) [Compound O9]: the EC50 in the data set with rgRSV224 virus was 110 nM. This compound also showed a CC50 at 3 days in data set [1] of 89100 nM.
The matching figures for `CNc1cc(C(=O)N2CCc3ccccc3[C@H]2C)nc2cc(-c3ccc(/C=C/C(=O)O)cc3F)nn12` [Compound M14]: 24 nM and 15800 nM.
The matching figures for `CCc1cc(C(=O)N2CCCCC[C@H]2C)nc2cc(-c3ccc(-n4cc(C(=O)O)c(C)n4)cc3F)nn12` (racemic) [Compound W25]: 93.3 nM and 66100 nM.
The matching figures for `C[C@@H]1CCCCCN1C(=O)c1cc(C2(C)COC2)n2nc(-c3cccc(/C=C/C(=O)O)c3F)cc2n1` [Compound M33]: 102 nM and over 100000 nM.
On to `CCc1cc(C(=O)N2CCc3ccccc3[C@H]2C)nc2cc(-c3ccc(-c4ccc(C(=O)O)cn4)cc3F)nn12` [Compound F23], for which the EC50 in the data set on rgRSV224 virus was 40.7 nM. In data set [1], this compound gave a CC50 at 3 days of over 25100 nM.
On to `C[C@@H]1CCCCCN1C(=O)c1cc(C2(C)CC2)n2nc(-c3ccc(N4CC[C@H](C(=O)O)C4)cc3F)cc2n1` [Compound W30], for which the EC50 with rgRSV224 virus was 17.4 nM. The compound further gave a CC50 at 3 days in data set [1] of 50100 nM.
In the same order, the values of `C[C@@H]1c2ccccc2CCN1C(=O)c1cc(C2(C)CC2)n2nc(-c3ccc(C4C[C@H]4C(=O)O)cc3F)cc2n1` (mixture of isomers) [Compound O8] are 11.7 nM and 49000 nM.
For `CCc1cc(C(=O)N2CCCCC[C@H]2C)nc2cc(-c3ccc(C4[C@@H](C(=O)O)C4(F)F)cc3F)nn12` (mixture of isomers) [Compound O18], the EC50 with rgRSV224 virus is 191 nM. This compound showed a CC50 at 3 days in data set [1] of 53700 nM.
In the same order, the values of `CCc1cc(C(=O)N2CCCCCC2C)nc2cc(-c3ccc(-c4cn[nH]c4)cc3F)nn12` (centres unmarked) [Compound F6] are 355 nM and over 25100 nM.
In the same order, the values of `CC1c2ccsc2CCN1C(=O)c1cc(C2(C)CC2)n2nc(-c3ccc4c(c3F)OCC(C(=O)O)=C4)cc2n1` (racemic) [Compound F67] are 39.8 nM and 67600 nM.
Turning to `CCc1cc(C(=O)N2CCc3ccccc3[C@H]2C)nc2cc(-c3ccc(/C=C/C(=O)O)cc3F)nn12` [Compound M15], in the data set on rgRSV224 virus, the EC50 was 15.1 nM. The compound also showed a CC50 at 3 days in data set [1] of over 20400 nM.
